Data set [1] deals with corneal kindled male C57Bl/6 mice. The data set is described as follows: Mouse corneal kindling model. Format: in vivo. As to conditions: for Seizure severity score (Average): Racine's scale. The source says: Male C57Bl/6 mice were stimulated twice daily for 10 days. The electric-stimulations with current intensities of 4.0 mA and duration of 3 s (pulse frequency 50 Hz) were applied via corneally placed saline-soaked copper electrodes.
Seizure severity was ranked according to a modified scoring system of the Racine's scale (Clin. Neurophysiol. 1972:32:281-294): Score 1, mild facial clonus and eye blinking; 2, severe facial clonus, head nodding, chewing; 3, unilateral or alternating forelimb clonus; 4, bilateral forelimb clonus with rearing; 5, bilateral forelimb clonus with rearing and falling; 6, tonic fore- and/or hindlimb extension. The fully kindled animals with the severity score 4 or more were used for evaluation.
Test compounds were dissolved in the vehicle (0.45% methyl cellulose/4.5% cremophor/10% DMSO), then orally (p.o.) or intraperitoneally (i.p.) administered to mice. The vehicle was orally administered as controls.
Electric stimulation was applied at 1 hour after p.o. or 20 minutes after i.p administration. Stimulation parameters were the same as during the kindling process. After electric stimulation, seizure severity was recorded for 30 seconds according to the Racine's scale.
Four to ten animals were used for calculation of average seizure severity score at each dose.

The nature of another data set: Rota rod test. The class given is in vivo, mouse. As to conditions: male, ddY, mouse, in vivo, po; dose at which fall off latency shorten by 50% of vehicle control value. The method, then:
(§1) Rotarod apparatus (Rota-rod MK-660C, Muromachi-Kikai Co., Ltd.) was used for measurement. The motor was turned on and the rod rotation was continuously accelerated to a rate of 40 rpm over 180 sec.
(§2) Male ddY mice at an age of 5 weeks (Japan SLC) were used. On the experiment day, the mice were pretrained and only the animals able to remain on the rod for at least 60 s were selected for experiment.
(§3) Test compounds were dissolved in the vehicle (0.45% methyl cellulose/4.5% cremophor/10% dimethyl sulfoxide), then orally (p.o.) administered to mice. The vehicle was orally administered as controls. The effects of compounds were studied in groups of six to ten animals.
(§4) Latency for mice to fall off from the rod was measured. The toxic dose at which fall off latency shorten by 50% of vehicle control value (TD50) was calculated.
(§5) Therapeutic index were calculated by dividing the respective TD50 value in rota rod test by the ED50 value determined in the corneal kindling model.
(In general: In the rotarod test animals must keep their balance on a rotating rod.)

Another data set deals with male ddY mice. The data set is described as follows: Rota rod test. The class given is in vivo, mouse. The conditions noted are these: route p.o.; TD50 in rota rod test divided by ED50 in corneal kindling model. The method, then:
as §1, §2, §3, §4, §5

Setting [2] is: dose 10 mg/kg, p.o., stimulation 1 hour after administration.
[3] abbreviates: dose 25 mg/kg, p.o., stimulation 1 hour after administration.
Where [4] appears, read: dose 10 mg/kg, p.o., stimulation 1 hour after administration, 10 mg/kg.
Where [5] appears, read: dose 50 mg/kg, p.o., stimulation 1 hour after administration.
The mark [6] stands for this setting: dose 10 mg/kg, i.p., stimulation 20 minutes after administration.
[7] abbreviates: dose 25 mg/kg, i.p., stimulation 20 minutes after administration.
The mark [8] stands for this setting: dose 25 mg/kg, p.o., stimulation 1 hour after administration, 25 mg/kg.

Usually TD50 stands for the 50% point of the dose-response relation for the toxic effect studied. High values mean harm only at a large dose, low ones harm at a small dose. As a reminder, the ED50 is the dose that gives a 50% effect, or the effect in half of the subjects. A lower ED50 goes with an effect at a small dose.

Turning to `NS(=O)(=O)NC1CCc2cc(Cl)cc(F)c21` (single isomer, unassigned; (-)) [Example 23, (−)-N-(5-chloro-7-fluoro-2,3-dihydro-1H-inden-1-yl)sulfamide], the entries for the “Seizure severity score (Average)” value in data set [1] (setting [2]) and in data set [1] (setting [3]) were 4.25 and 0, respectively.
Take `Cc1cc(C#N)cc2c1[C@@H](NS(N)(=O)=O)CC2` [Example 25b, (−)-N-(5-cyano-7-methyl-2,3-dihydro-1H-inden-1-yl)sulfamide]: the “Seizure severity score (Average)” value in data set [1] (setting [4]) came out at 1; in data set [1] (setting [3]), 0.
Turning to `NS(=O)(=O)N[C@H]1c2c(F)ccc(F)c2CC1(F)F` [Example 2, N-[(1S)-2,2,4,7-tetrafluoro-2,3-dihydro-1H-inden-1-yl]sulfamide], the TD50 in the data set “Rota rod test” is over 200 mg/kg. Further, in the data set with male ddY mice, the Therapeutic index is reported as over 13.0. In data set [1] (Mus musculus, po, dosage where 50% of animals showed seizure severity score 2 or less), this compound displayed an ED50 of 15.4 mg/kg. Further, the “Seizure severity score (Average)” value turned out to be 4 in data set [1] (setting [2]), 0 in data set [1] (setting [3]) and 0 in data set [1] (setting [5]).
With `Cc1cc(C#N)cc2c1C(NS(N)(=O)=O)CC2` (single isomer, unassigned) [Example 25a, (+)-N-(5-cyano-7-methyl-2,3-dihydro-1H-inden-1-yl)sulfamide], the “Seizure severity score (Average)” value in data set [1] (setting [4]) came to 1.75; in data set [1] (setting [3]) it was 0.
Consider `Cc1cc(C#N)cc2c1C(NS(N)(=O)=O)C(F)(F)C2` (single isomer, unassigned) [Example 4, N-[(1S*)-5-cyano-2,2-difluoro-7-methyl-2,3-dihydro-1H-inden-1-yl]sulfamide], for which the “Seizure severity score (Average)” value in data set [1] (setting [3]) and in data set [1] (setting [5]) was 0 in each case.
For `NS(=O)(=O)NC1c2c(F)c(F)cc(F)c2CC1(F)F` (single isomer, unassigned; (+)) [Example 3, (+)-N-(2,2,4,6,7-pentafluoro-2,3-dihydro-1H-inden-1-yl)sulfamide], the “Seizure severity score (Average)” value in data set [1] (setting [2]) came out at 1.5; in data set [1] (setting [3]), 0.
As to `NS(=O)(=O)NC1c2c(Cl)ccc(F)c2CC1(F)F` (single isomer, unassigned; (-)) [Example 7, (−)-N-(7-chloro-2,2,4-trifluoro-2,3-dihydro-1H-inden-1-yl)sulfamide], the “Seizure severity score (Average)” value is recorded as 3.5 in data set [1] (setting [6]) and 0.25 in data set [1] (setting [7]).
`NS(=O)(=O)N[C@H]1CCc2cccc(Cl)c21` (single isomer, unassigned) [Example 24, (+)-N-(7-chloro-2,3-dihydro-1H-inden-1-yl)sulfamide]: the “Seizure severity score (Average)” value in data set [1] (setting [2]) came out at 3; in data set [1] (setting [3]), 0.
For `Cc1ccc(F)c2c1[C@@H](NS(N)(=O)=O)CC2` (single isomer, unassigned) [Example 28a, (+)-N-(4-fluoro-7-methyl-2,3-dihydro-1H-inden-1-yl)sulfamide], the “Seizure severity score (Average)” value in data set [1] (setting [4]) is on record as 4; in data set [1] (setting [3]) it was 0.
Consider `Cc1cc(Cl)cc2c1C(NS(N)(=O)=O)CC2` (racemic) [Example 30, (±)-N-(5-chloro-7-methyl-2,3-dihydro-1H-inden-1-yl)sulfamide], for which the “Seizure severity score (Average)” value in data set [1] (setting [2]) was 4.25; in data set [1] (setting [3]), 0.25.
Turning to `NS(=O)(=O)N[C@@H]1c2c(Cl)cc(F)cc2C[C@H]1F` (relative stereo) [Example 17, (−)-N-[(1R*,2R*)-7-chloro-2,5-difluoro-2,3-dihydro-1H-inden-1-yl]sulfamide], the entries for the “Seizure severity score (Average)” value in data set [1] (setting [2]), in data set [1] (setting [3]) and in data set [1] (setting [5]) were 2, 0 and 0, respectively.
On to `N#Cc1cc(Cl)c2c(c1)CC[C@H]2NS(N)(=O)=O` [Example 22a, (+)-N-(7-chloro-5-cyano-2,3-dihydro-1H-inden-1-yl)sulfamide], for which the “Seizure severity score (Average)” value amounted to 3 in data set [1] (setting [2]) and 0.25 in data set [1] (setting [8]).
In the case of `Cc1cccc2c1C(NS(N)(=O)=O)CC2` (single isomer, unassigned; (+)) [Example 27, (+)-N-(7-methyl-2,3-dihydro-1H-inden-1-yl)sulfamide], the “Seizure severity score (Average)” value in data set [1] (setting [2]) is 3; in data set [1] (setting [3]), 0.
For the compound `NS(=O)(=O)N[C@@H]1c2c(Cl)ccc(F)c2C[C@H]1F` (relative stereo) [Example 16b, (+)-N-[(1R*,2R*)-7-chloro-2,4-difluoro-2,3-dihydro-1H-inden-1-yl]sulfamide], the “Seizure severity score (Average)” value amounted to 3.75 in data set [1] (setting [2]) and 0.5 in data set [1] (setting [8]).
Regarding `NS(=O)(=O)NC1CCc2c(F)ccc(Cl)c21` (single isomer, unassigned; (+)) [Example 20, (+)-N-(7-chloro-4-fluoro-2,3-dihydro-1H-inden-1-yl)sulfamide], the “Seizure severity score (Average)” value in data set [1] (setting [6]) is 3.25; in data set [1] (setting [7]), 0.
For the compound `N#Cc1cc(Cl)c2c(c1)CC[C@H]2NS(N)(=O)=O` (single isomer, unassigned) [Example 22b, (−)-N-(7-chloro-5-cyano-2,3-dihydro-1H-inden-1-yl)sulfamide], the figures for the “Seizure severity score (Average)” value in data set [1] (setting [2]) and in data set [1] (setting [8]) were 3 and 0, respectively.
As to `NS(=O)(=O)NC1c2c(ccc(F)c2Cl)CC1(F)F` (single isomer, unassigned; (-)) [Example 9, (−)-N-(7-chloro-2,2,6-trifluoro-2,3-dihydro-1H-inden-1-yl)sulfamide], the “Seizure severity score (Average)” value in data set [1] (setting [3]) and in data set [1] (setting [5]) was 0 in each case.
Turning to `Cc1ccc(F)c2c1C(NS(N)(=O)=O)C(F)(F)C2` (single isomer, unassigned) [Example 13, N-[(1S*)-2,2,4-trifluoro-7-methyl-2,3-dihydro-1H-inden-1-yl]sulfamide], the “Seizure severity score (Average)” value in data set [1] (setting [2]) stood at 0.
Regarding `NS(=O)(=O)N[C@@H]1c2c(Cl)ccc(F)c2C[C@H]1F` (relative stereo) [Example 16a, (−)-N-[(1R*,2R*)-7-chloro-2,4-difluoro-2,3-dihydro-1H-inden-1-yl]sulfamide], the “Seizure severity score (Average)” value in data set [1] (setting [8]) is recorded as 0.
`NS(=O)(=O)NC1c2c(cccc2C(F)F)CC1(F)F` (single isomer, unassigned) [Example 14, N-[(1S*)-7-(difluoromethyl)-2,2-difluoro-2,3-dihydro-1H-inden-1-yl]sulfamide]: the “Seizure severity score (Average)” value in data set [1] (setting [3]) is reported as 0.
As to `CO[C@@H]1Cc2c(Cl)ccc(F)c2[C@H]1NS(N)(=O)=O` (relative stereo) [Example 18, (+)-N-[(1R*,2R*)-4-chloro-7-fluoro-2-methoxy-2,3-dihydro-1H-inden-1-yl]sulfamide], the “Seizure severity score (Average)” value in data set [1] (setting [2]) worked out at 2; in data set [1] (setting [3]), 0.
As to `Cc1cc(F)cc2c1C(NS(N)(=O)=O)CC2` (racemic) [Example 26, (±)-N-(5-fluoro-7-methyl-2,3-dihydro-1H-inden-1-yl)sulfamide], the “Seizure severity score (Average)” value in data set [1] (setting [2]) amounted to 4.25; in data set [1] (setting [3]) it was 0.
On to `NS(=O)(=O)N[C@@H]1c2c(F)ccc(F)c2C[C@H]1F` (relative stereo) [Example 15, N-[(1R*,2R*)-2,4,7-trifluoro-2,3-dihydro-1H-inden-1-yl]sulfamide], for which the “Seizure severity score (Average)” value turned out to be 3 in data set [1] (setting [2]) and 0 in data set [1] (setting [3]).
Turning to `NS(=O)(=O)NC1c2c(F)cc(Cl)cc2CC1(F)F` (single isomer, unassigned; (+)) [Example 10, (+)-N-(5-chloro-2,2,7-trifluoro-2,3-dihydro-1H-inden-1-yl)sulfamide], the “Seizure severity score (Average)” value in data set [1] (setting [2]) and in data set [1] (setting [3]) was 0 throughout.
Regarding `NS(=O)(=O)NC1CCc2c(Cl)ccc(F)c21` (single isomer, unassigned; (-)) [Example 31, (−)-N-(4-chloro-7-fluoro-2,3-dihydro-1H-inden-1-yl)sulfamide], the “Seizure severity score (Average)” value in data set [1] (setting [2]) came out at 1.5; in data set [1] (setting [3]), 0.
Turning to `Cc1ccc(F)c2c1[C@@H](NS(N)(=O)=O)CC2` [Example 28b, (−)-N-(4-fluoro-7-methyl-2,3-dihydro-1H-inden-1-yl)sulfamide], the “Seizure severity score (Average)” value is reported as 3.75 in data set [1] (setting [4]) and 0 in data set [1] (setting [3]).

Values taken from patent publication US9018260B2, “Indanesulfamide derivatives” (Eisai R&D Management Co., Ltd., priority 2012, dated 2015).
